Tested on: human embryonic stem cells line H1
Assay: IN Cell Analyzer imaging of PDX1, NKX6.1 and CDX2 expressing cells at stage 4 day 4 (Example 1)
Type: cell-based
Description: Treatment 1: DMEM-High glucose+1% B27 for four days (stage 4-basal media-BM), or […].
Parallel populations of Stage 3 cells were also treated with the following protein kinase C activators—phorbol-12-myristate-13-acetate (PMA) at a concentration of 20 nM (Calbiochem #524400), or [(2S, 5S)-(E, E)-8-(5-(4-(Trifluoromethyl)pheny)-2,4-pentadienoylamino)benzolactam] (TPB) at a concentration of 50 nM (Calbiochem #565740), substituted for PDBu in treatment 3 above. At the end of stage 4, day 4, 91% of the cells of the population treated with PMA, and 90% of the cells of the population treated with TPB expressed NKX6.1.

[1] = PKC activator 20 nM in DMEM-High glucose+1% B27+100 ng/ml Noggin+1 μM ALK5 inhibitor II for four days

| Molecule | percentage of total population expressing NKX6.1 [1] | percentage of total population expressing NKX6.1 (TPB 50 nM substituted for PDBu in treatment 3) |
| --- | --- | --- |
| CCCC(=O)O[C@@H]1[C@@H](C)[C@@]2(O)[C@@H](C=C(CO)C[C@]3(O)C(=O)C(C)=C[C@@H]23)[C@@H]2C(C)(C)[C@]12OC(=O)CCC [PDBu, phorbol-12,13-dibutyrate] | 88%±4.2 |  |
| CCCCCCCCCCCCCC(=O)O[C@@H]1[C@@H](C)[C@@]2(O)[C@@H](C=C(CO)C[C@]3(O)C(=O)C(C)=C[C@@H]23)[C@@H]2C(C)(C)[C@]12OC(C)=O [PMA, phorbol-12-myristate-13-acetate] | 91% |  |
| (2S, 5S)-(E, E)-8-(5-(4-(Trifluoromethyl)phenyl)-2,4-pentadiemoylamino) benzolactam [TPB] |  | 90% |

Source: US9752125B2, “Differentiation of human embryonic stem cells” (priority 2010, dated 2017)
